Experimental data as given in publication PMC12082688, “Temporal Distribution of Imidacloprid and Its Metabolites in Laying Hens: An Evaluation of the Potential Impact on Food Safety” (Journal of Agricultural and Food Chemistry, 2025).
“Also recorded” adds a separate entry of the source. Like-named read-outs stand apart in the source and are kept apart here.

Experiments:
[1] = Plasma concentration versus time profile after a single oral gavage dose, LC-MS/MS; format: in vivo, Hy-line brown hens; conditions: for time until plasma concentration below the limit of quantitation: 1 mg/kg single oral gavage, LOQ 0.5 ng/mL; for Tmax: female, Hy-line brown, in vivo
Protocol: (§1) Seventy-five, 61-week-old, Hy-line brown hens weighing 1.6–2.4 kg were housed in individual, 22” × 24” × 16” cages with nest box curtains and scratch pads, on two levels. Hens were acclimatized for 1 week on a 16-h light:8-h dark cycle. A wall exhaust fan maintained the temperature between 17–19 °C. A standard layer diet containing corn and soybean meal, 4.9% calcium and 16.5% protein was available ad libitum (Webberville Feed & Grain Co., Webberville, MI, USA). Water was available ad libitum. Hens were weighed and randomly assigned to one of three treatment groups (n = 5 hens/group) that received imidacloprid at 1 and 10% of a reported LD50 for chickens corresponding to 1 and 10 mg/kg of IMI or a placebo treatment (Lafeber Nutristart 1:3 in water; Lafeber Co., Cornell, Il, USA).[14] Birds were fasted overnight. Prior to gavage, crops were palpated to ensure that they were empty.
(§2) Analytical grade (active) imidacloprid powder (ChemService, West Chester, PA, USA) was dissolved in ethanol (10% v/v), mixed with corn oil, and then further dissolved in Lafeber Nutristart (1:3 in water; Lafeber Co., Cornell, Il, USA) to obtain final concentrations of 0.8 or 0.08 mg/mL.[8],[14] Treatments were prepared on the morning of administration, protected from light, kept on ice, and mixed thoroughly prior to administration. The concentrations and purity of IMI were verified before the start of the trial. IMI was administered by oral gavage using a 60-cc syringe and a 10 Fr × 16 in. red rubber urethral feeding catheter. After each administration, the catheter was flushed with 5 mL of water. Birds received a similar volume of treatment or placebo (20–30 mL).
(§3) Approximately 2–3 mL of blood was sampled from the brachial vein at 1, 2, 4, 24, 48, and 168 h postexposure, transferred into 2 mL EDTA tubes, sat at room temperature for 1–2 h, centrifuged at 1200g for 10 min, plasma was transferred into microcentrifuge tubes, and samples were kept at 4 °C until analysis within 1 week of study completion. Birds were humanely euthanized by cervical dislocation (n = 5 hens/treatment/time point). At 1, 4, 24, 48, and 168 h postexposure, approximately 1.0 g from the left pectoralis major, left quadriceps, left liver lobe, coelomic fat pad, spleen, right cranial and middle kidney lobes, and brain (cerebrum, optic lobes, cerebellum, brainstem) were collected, placed in Whirl-Pak sample bags (Nasco Sampling LLC, Madison, WI, USA), and kept at −20 °C until analysis. Whole eggs that were spontaneously laid or near completion in the shell gland were collected at 24 (n = 27), 48 (n = 24), 72 (n = 13), and 168 h (n = 12) after treatment and cracked in half, and yolk and albumen were kept in screw top specimen containers at −20 °C until analysis. […] Doses and time points were based on similar studies done in chickens[8] and Japanese Quail.[7] All animal procedures were approved by the Institutional Animal Care and Use Committee (IACUC) at MSU no. PROTO202300371.
Neonicotinoids were extracted from 200 μL of plasma, which was added to a test tube with […] of 0.5 ng/mL ISTD in acetonitrile. The mixture was vortexed for 40 s until well-mixed and then centrifuged for 5 min at 3000g. The supernatant was removed and filtered through a 0.2 μm PTFE membrane filter into an autosampler vial for LC-MS/MS analysis.
Analysis was performed with a liquid chromatographic-tandem mass spectrometer, an AB Sciex 6500+ ESI-MS/MS (SCIEX, Framingham, MA, USA) interfaced to a Shimadzu LC (Shimadzu Corp, Kyoto, Japan). Chromatography was achieved using the Kinetex F5:2.6 μm (100 mm × 3 mm) column (Phenomenex, Torrance, CA, USA). The column temperature was maintained at 40 °C with a column heater. Injection volume was 10 μL. The mobile phase consisted of 0.1% formic acid in Milli-Q water (mobile phase A) and 0.1% formic acid in acetonitrile (mobile phase B) at a flow rate of 0.5 mL/min. […]

[2] = cited from earlier work
[3] = Distribution of IMI and metabolites in tissues, eggs and feces after a single oral gavage dose, LC-MS/MS; format: in vivo; conditions: for metabolite abundance in tissues: 1 and 10 mg/kg IMI single oral gavage, all sampled tissues; for metabolite concentrations in eggs versus regulatory thresholds: eggs within 24 h postexposure to IMI
Protocol: as §1, §2, §3
Tissues were prepared for analysis by sectioning 0.5 g of homogeneous tissue (free of connective and vascular tissue) and placing it in a 7 mL Precellys bead tissue homogenization tube. Egg yolk and albumin from individual eggs were homogenized with an Omni International (Kennesaw, GA, USA) 125/TM125-11 hand-held homogenizer with a stainless steel 7 mm generator probe. Similar to tissues, 0.5 g of egg homogenate was placed in a 7 mL Precellys bead tissue homogenization tube. Two milliliters of acetonitrile containing 1 ng/mL of ISTD was added. Tissues were homogenized at room temperature with a Precellys Evolution Homogenizer (Bertin Technologies, Montigny-Le-Bretonneux, France): Speed–4500g, Cycle 2 × 20 s with a 20 s pause between cycles. The homogenized tissues and egg were centrifuged at 5400g for 10 min to pellet solid material at the bottom of the tube. 250 μL of the clear top layer from each tube was transferred to an autosampler vial for LC-MS/MS analysis. […]

[4] = in vivo, po; cited from earlier work
[5] = test system: birds; parameters: method as in PMID 32274821; conditions: cited from earlier work
[6] = IMI equivalents (sum of IMI and 6-chloropyridinyl moiety metabolites) in poultry products versus CFR/EFSA tolerance; parameters: species or system Hy-line brown hens; conditions: in vivo
Source text: The specific absorption, distribution, metabolism, and excretion profile of IMI in laying hens and the presence of IMI and its metabolites in eggs are unknown. Therefore, the primary goal of this study was to evaluate food safety in the context of IMI’s temporal distribution and metabolite profile. To achieve this, IMI and its 6-chloropyridinyl moiety-containing metabolites (IMI-urea, IMI-olefin, desnitro-IMI, 5-OH-IMI, and 6-chloronicotinic acid) were quantitatively measured in blood, tissue, feces, and eggs following a single subclinical dose over time. These concentrations were measured using a liquid chromatography tandem mass spectrometry (LC-MS/MS) method and compared with tolerances established in the Code of Federal Regulations (CFR) and Article 12 of the European Food Safety Authority (EFSA) Regulation No 396/2005.[12],[13]
as §3
Tissues were prepared for analysis by sectioning 0.5 g of homogeneous tissue (free of connective and vascular tissue) and placing it in a 7 mL Precellys bead tissue homogenization tube. Egg yolk and albumin from individual eggs were homogenized with an Omni International (Kennesaw, GA, USA) 125/TM125-11 hand-held homogenizer with a stainless steel 7 mm generator probe. Similar to tissues, 0.5 g of egg homogenate was placed in a 7 mL Precellys bead tissue homogenization tube. Two milliliters of acetonitrile containing 1 ng/mL of ISTD was added. […]

[7] = test system: laying hens; assay: Response to treatment: clinical monitoring, post-mortem examination and daily egg production; format: in vivo; conditions: 1 or 10 mg/kg single oral gavage
Protocol: as §1
Analytical grade (active) imidacloprid powder (ChemService, West Chester, PA, USA) was dissolved in ethanol (10% v/v), mixed with corn oil, and then further dissolved in Lafeber Nutristart (1:3 in water; Lafeber Co., Cornell, Il, USA) to obtain final concentrations of 0.8 or 0.08 mg/mL.[8],[14] Treatments were prepared on the morning of administration, protected from light, kept on ice, and mixed thoroughly prior to administration. […]
Birds were closely monitored postgavage for any adverse reactions. […]

[8] = test system: chickens; conditions: in vivo; cited from earlier work
[9] = in vivo; cited from earlier work
[10] = test system: layers; conditions: cited from earlier work
[11] = 10 mg/kg single oral gavage, read-out: time of peak concentration in plasma
[12] = domestic chickens, 15 days after the last exposure following daily exposure for 7 days

Structure (SMILES): O=[N+]([O-])/N=C1\NCC(O)N1Cc1ccc(Cl)nc1 (stereo not shown) [5-OH-IMI, 5-hydroxyimidacloprid]
- time until plasma concentration below the limit of quantitation [1]: ≤ 24 h
- Tmax [1, 11]: 4 h
- presence in feces, liver, muscle, spleen, kidney and brain [2, 12]: detected
- metabolite abundance in tissues [3]: metabolized predominantly to 5-OH-IMI
- metabolite concentrations in eggs versus regulatory thresholds [3]: exceeding current regulatory thresholds

Structure (SMILES): O=C(O)c1ccc(O)nc1 [6-OH-NA, 6-hydroxy nicotinic acid]
- presence in fecal matter ([3]; feces collected after IMI single oral gavage): evidence in fecal matter for the formation; also recorded: presence of 6-OH-NA in fecal matter collected at 24 and 48 h post treatment

Structure (SMILES): O=[N+]([O-])Nc1nccn1Cc1ccc(Cl)nc1 [IMI-olefin, imidacloprid-olefin]
- time until plasma concentration below the limit of quantitation [1]: ≤ 24 h
- time of peak concentration in plasma ([1]; 10 mg/kg single oral gavage): 4 h
- presence in feces, liver, muscle, spleen, kidney and brain [2, 12]: detected
- metabolite abundance in tissues [3]: more abundant metabolite observed in most tissues except in the kidney where it was notably absent
- metabolite concentrations in eggs versus regulatory thresholds [3]: exceeding current regulatory thresholds

Structure (SMILES): O=C1NCCN1Cc1ccc(Cl)nc1 [IMI-urea, imidacloprid urea]
- time of peak concentration in plasma ([1]; 10 mg/kg single oral gavage): 4 h
- presence of metabolite in sample types ([3]; 10 mg/kg IMI single oral gavage): present in the 10 mg/kg treatment group for all sample types except in the liver
- metabolite abundance in tissues [3]: equally abundant in kidney with 5-OH-IMI
- metabolite concentrations in eggs versus regulatory thresholds [3]: exceeding current regulatory thresholds

Structure (SMILES): O=[N+]([O-])NC1=NCCN1Cc1ccc(Cl)nc1 [IMI]
- Tmax ([1]; po, 1 mg/kg): ≤ 1 h
- Tmax ([1]; po, 10 mg/kg): 4 h
- residues in liver, pectoral muscle, brain and kidney [4]: detected
- clinical signs ([5]; 10 mg/kg IMI administration): moderate sedation occurred within minutes
- clinical signs ([5]; birds given 1 mg/kg): no outward clinical signs
- presence in feces, liver, muscle, spleen, kidney and brain ([2]; in vivo): detected
- IMI equivalents in adipose tissue versus 50 ppb (50 ng/g) threshold [6]: no animal exceeded
- IMI equivalents in brain, liver, spleen and kidney versus threshold (50 ng/g) [6]: surpassed the threshold for most animals
- IMI equivalents in liver and spleen versus threshold (50 ng/g) [6]: remained in excess of the threshold for several animals
- eggs with IMI equivalents exceeding the CFR regulatory threshold of 20 ppb (20 ng/g) [6]: 6 of 10
- gross lesions at post-mortem examination [7]: no gross lesions were observed
- adjusted effective dose (ED50) for neurologic signs [8]: 11.2 mg/kg/day
- time of absorption into the bloodstream [9]: ≤ 1 h
- time of excretion in feces [9]: ≤ 24 h
- LD50 [10]: 104.1 mg/kg

Structure (SMILES): N=C1NCCN1Cc1ccc(Cl)nc1 [desnitro-IMI, desnitro imidacloprid]
- Tmax [1, 11]: 4 h
